Laboratory results reported in paper PMC3816525 (Investigational new drugs, 2011).
One block for each compound: values may come before it.

Experiments:
[1] = human, in vivo
clinical [2] = conditions: human, in vivo, AUC(0–24h)
[3] = cited from earlier work
[4] = human, in vivo; remark: listed apart in the source
clinical [5] = conditions: human, in vivo, AUC(0–24h); remark: listed apart in the source
mantle cell lymphoma = conditions: phase II, single agent; cited from earlier work
glioblastoma multiforme = conditions: two trials in glioblastoma multiforme; cited from earlier work
advanced breast cancer = conditions: heavily pretreated advanced breast cancer; cited from earlier work

Structure (SMILES): CCOc1cc2ncc(C#N)c(Nc3ccc(F)c(Cl)c3)c2cc1NC(=O)/C=C/CN(C)C [EKB-569]
Accumulation: AUC(0–24h) Day 6/Day 1 [1]: 1.78±0.56
Accumulation: AUC(0–24h) Day 7/Day 6 [1]: 1.19±0.28
Accumulation: AUC(0–24h) Day 9/Day 6 [1]: 1.40±0.33
Increase of AUC(0-24h) on Day 7 [1]: about 19%
AUC(0-t) (clinical [2]; Day 6): 378 ± 144 ng·h/mL
AUC(0-t) (clinical [2]; Day 7): 426 ± 127 ng·h/mL
AUC(0-t) (clinical [2]; Day 9): 493 ± 112 ng·h/mL
MTD, single agent ([3]; advanced solid tumors, DLT grade 3 diarrhea): 75 mg daily
Recommended dose in combination with FOLFIRI ([3]; in vivo): 25 mg daily

Structure (SMILES): CCOc1cc2ncc(C#N)c(Nc3ccc(F)c(Cl)c3)c2cc1NC(=O)/C=C/CNC [N-desmethyl EKB-569]
AUC(0–24h), Day 6 [1]: 52.7 ± 61.2 ng·h/mL
AUC(0–24h), Day 7 [1]: 60.8 ± 52.8 ng·h/mL
AUC(0–24h), Day 9 [1]: 75.2 ± 51.0 ng·h/mL

Structure (SMILES): CO[C@H]1C[C@@H]2CC[C@@H](C)[C@@](O)(O2)C(=O)C(=O)N2CCCC[C@H]2C(=O)O[C@H]([C@H](C)C[C@@H]2CC[C@@H](O)[C@H](OC)C2)CC(=O)[C@H](C)/C=C(\C)[C@@H](O)[C@@H](OC)C(=O)[C@H](C)C[C@H](C)/C=C/C=C/C=C/1C [sirolimus]
Accumulation: AUC(0–24h) Day 3/Day 1 [4]: 1.37±0.44
Accumulation: AUC(0–24h) Day 15/Day 1 [4]: 0.99±0.27
Accumulation: AUC(0–24h) Day 17/Day 3 [4]: 1.78±0.63
Change of AUC(0-24h) on Day 15 compared to day 1 [4]: similar
AUC(0-t) (clinical [5]; Day 3): 437 ± 116 ng·h/mL
AUC(0-t) (clinical [5]; po, 30 mg, Day 1): 348 ± 158 ng·h/mL

Change of AUC(0-24h) on Day 15 compared to day 1 [4]: 66%
AUC(0-t) (clinical [5]; Day 3): 68.3 ± 20.4 ng·h/mL
AUC(0-t) (clinical [5]; po, 30 mg, Day 1): 83.9 ± 27.6 ng·h/mL
Structure (SMILES): CO[C@H]1C[C@@H]2CC[C@@H](C)[C@@](O)(O2)C(=O)C(=O)N2CCCC[C@H]2C(=O)O[C@H]([C@H](C)C[C@@H]2CC[C@@H](OC(=O)C(C)(CO)CO)[C@H](OC)C2)CC(=O)[C@H](C)/C=C(\C)[C@@H](O)[C@@H](OC)C(=O)[C@H](C)C[C@H](C)/C=C/C=C/C=C/1C [temsirolimus]
Median TTP (mantle cell lymphoma): 6 months
Overall response rate (mantle cell lymphoma): 38–41%
TTP (glioblastoma multiforme): 9–38 weeks
Partial response rate (advanced breast cancer): 9.2%
